PubChem BioAssay (NCI)
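Five compound concentrations were applied to cells in 96-well plates for 48 hours; endpoints were derived by simple linear interpolation of the resulting dose-response curve. TGI marks complete inhibition of growth.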

Columns and labels:
Experiment in all cases: NCI-60 cell line screen, 48 h
A549 NSCLC = system: A549 NSCLC
DU-145 prostate = system: DU-145 prostate
HCC-2998 colon = system: HCC-2998 colon
NCI-H460 lung = system: NCI-H460 lung
OVCAR-5 ovarian = system: OVCAR-5 ovarian
PC-3 prostate = system: PC-3 prostate
TK-10 renal = system: TK-10 renal
UACC-257 melanoma = system: UACC-257 melanoma
UACC-62 melanoma = system: UACC-62 melanoma
UO-31 renal = system: UO-31 renal

Compound	TGI (A549 NSCLC)	TGI (DU-145 prostate)	TGI (HCC-2998 colon)	TGI (NCI-H460 lung)	TGI (OVCAR-5 ovarian)	TGI (PC-3 prostate)	TGI (TK-10 renal)	TGI (UACC-257 melanoma)	TGI (UACC-62 melanoma)	TGI (UO-31 renal)
COc1ccc(-n2c(=O)c3[nH]c(=S)[nH]c3n(-c3ccc(OC)cc3)c2=S)cc1	> 100 µM	> 100 µM	> 100 µM	> 100 µM	> 100 µM	> 100 µM	> 100 µM	> 100 µM	> 100 µM	> 100 µM
CC(=O)n1cc(C2CC23N=C(c2ccccc2)OC3=O)c2ccccc21 (stereo not given)	59.9 µM	33.2 µM	30.8 µM	> 64.9 µM	49.7 µM	41.5 µM	53.8 µM	32.8 µM	31.7 µM	30.9 µM
O=C(O)CSc1ccccc1C(=O)O	> 100 µM	> 100 µM	46.8 µM	38.1 µM	> 100 µM	> 100 µM	53.5 µM	34.1 µM	> 100 µM	> 100 µM
O=C1COc2cc(N3CCN(c4cccc(C(F)(F)F)c4)CC3)ccc2N1	> 100 µM	> 100 µM	> 100 µM	> 100 µM	> 100 µM	> 100 µM	> 100 µM	> 100 µM	> 100 µM	> 100 µM
N#Cc1c(-c2ccc(Cl)cc2)cc(-c2ccc(Nc3ccnc4cc(Cl)ccc34)cc2)[nH]c1=O	> 100 µM	> 100 µM	> 100 µM	> 100 µM	> 100 µM	> 100 µM	> 55.3 µM	> 100 µM	> 100 µM	> 100 µM
CCOC(=O)c1ccc(Nc2nc3ccccc3nc2-c2cccs2)cc1	> 100 µM	> 100 µM	77.7 µM	> 100 µM	> 100 µM	> 100 µM	58.5 µM	> 100 µM	33.6 µM	> 100 µM
CCN1C/C(=C\c2ccc(Cl)cc2)c2nc(N)c(C#N)c(-c3ccc(Cl)cc3)c2C1	> 100 µM	> 100 µM	> 100 µM	> 100 µM	> 100 µM	> 100 µM	> 100 µM	> 100 µM	> 100 µM	> 100 µM
C=C(C(=O)O[C@H]1C/C(C)=C/CC/C(CO)=C/[C@H]2C(=O)OC(=C)[C@H]12)C(O)CO (stereo not given in full)	49.8 µM	33.4 µM	30.1 µM	31.6 µM	33 µM	22.2 µM	20.3 µM	24.1 µM	31.5 µM	27.6 µM
CC(=O)O[C@H]1CC[C@@]2(C)C(=CC[C@@H]3[C@@H]2CC[C@]2(C)C(=N/O)/C(=C\c4ccccc4)C[C@@H]32)C1	97.5 µM	> 91 µM	32 µM	97.9 µM	70.2 µM	> 100 µM	78.8 µM	37.3 µM	31.9 µM	> 59.2 µM
COC(=O)[C@@H]1CS(=O)(=O)C(C(C)C)N1C(C)=O (stereo not given in full)	> 100 µM	> 100 µM	> 100 µM	> 100 µM	> 100 µM	> 100 µM	> 100 µM	> 100 µM	> 100 µM	> 100 µM
Cc1cn(C2CCC(CO)(CF)O2)c(=O)[nH]c1=O (stereo not given)	> 100 µM	> 100 µM	> 100 µM	> 100 µM	> 100 µM	> 100 µM	> 100 µM	> 100 µM	> 100 µM	> 100 µM
NNC(=O)Nc1nc2ccc(NN)cc2[nH]1	> 100 µM	> 100 µM	41.4 µM	> 100 µM	> 100 µM	> 100 µM	82.6 µM	88.1 µM	56.4 µM	> 100 µM
N#CC1(C#N)C(C#N)(C#N)C1(C#N)C(N)=O	> 100 µM	> 100 µM	> 100 µM	> 100 µM	> 100 µM	> 100 µM	> 100 µM	> 100 µM	> 100 µM	> 100 µM
Cn1nc2ccc(Nc3cc(=O)[nH]c4ccc5nn(C)nc5c34)cc2n1	> 100 µM	> 100 µM	> 100 µM	> 100 µM	> 100 µM	> 100 µM	> 100 µM	> 100 µM	> 100 µM	> 100 µM
Cc1ccc(S(=O)(=O)N2C[C@@H]3CC[C@]4(CO[Si](C)(C)C(C)(C)C)N[C@@H](c5ccccc5)[C@H]2[C@H]34)cc1	> 100 µM	> 100 µM	50.5 µM	> 100 µM	> 100 µM	> 100 µM	> 100 µM	93.8 µM	> 100 µM	> 100 µM
CCCC[C@@H](C)/C=C1\CN2CCC[C@H]2[C@@](C)(OCc2ccccc2)[C@@H]1O	> 50 µM	> 19.3 µM	> 50 µM	> 50 µM	> 50 µM	> 50 µM	> 50 µM	> 46.1 µM	> 50 µM	> 16.6 µM
O=[N+]([O-])c1ccc(NN=C2CN3CCN(C2)c2ccccc23)c([N+](=O)[O-])c1	> 100 µM	> 100 µM	> 100 µM	> 100 µM	> 100 µM	> 100 µM	> 100 µM	> 100 µM	> 100 µM	> 100 µM
O=C(COc1ccc(OCC(=O)N2C(=O)CC(=O)N(c3ccc(Cl)cc3)C2=S)cc1)N1C(=O)CC(=O)N(c2ccc(Cl)cc2)C1=S	> 100 µM	> 100 µM	> 100 µM	> 100 µM	> 100 µM	> 100 µM	> 100 µM	> 100 µM	60.5 µM	> 100 µM
COc1cccc(N=N/C(=N/NC(=O)c2ccc(C)cc2)c2ccc(N(CCC#N)CCC#N)cc2OC)c1	> 100 µM	> 100 µM	> 100 µM	> 100 µM	39.1 µM	> 100 µM	> 100 µM	> 100 µM	> 100 µM	> 100 µM
N#Cc1nc2cc(Cl)ccc2nc1N1CCN(c2ccc([N+](=O)[O-])cc2)CC1	> 100 µM	> 100 µM	> 100 µM	> 100 µM	> 100 µM	> 100 µM	> 100 µM	> 100 µM	> 100 µM	> 100 µM
